This is an account of results in ChEMBL document CHEMBL1153028, “QSAR study on maximal inhibition (Imax) of quaternary ammonium antagonists for S-(-)-nicotine-evoked dopamine release from dopaminergic nerve terminals in rat striatum” (Bioorg Med Chem, 2009).

Test [1] is described as follows: Antagonist activity at nAChR in Sprague-Dawley rat striatal slices assessed as inhibition of S(-)-nicotine-evoked [3H]dopamine overflow at 100 uM by liquid scintillation counting. Type of test: functional.
For test [2], the target named is Neuronal acetylcholine receptor subunit alpha-6 (Mus musculus) (UniProt Q9R0W9). In words: Displacement of [3H]epibatidine from nAChRalpha6 in mouse brain by autoradiography. Format: tissue-based.
Sequence of Neuronal acetylcholine receptor subunit alpha-6 (Mus musculus) (Q9R0W9 whole entry): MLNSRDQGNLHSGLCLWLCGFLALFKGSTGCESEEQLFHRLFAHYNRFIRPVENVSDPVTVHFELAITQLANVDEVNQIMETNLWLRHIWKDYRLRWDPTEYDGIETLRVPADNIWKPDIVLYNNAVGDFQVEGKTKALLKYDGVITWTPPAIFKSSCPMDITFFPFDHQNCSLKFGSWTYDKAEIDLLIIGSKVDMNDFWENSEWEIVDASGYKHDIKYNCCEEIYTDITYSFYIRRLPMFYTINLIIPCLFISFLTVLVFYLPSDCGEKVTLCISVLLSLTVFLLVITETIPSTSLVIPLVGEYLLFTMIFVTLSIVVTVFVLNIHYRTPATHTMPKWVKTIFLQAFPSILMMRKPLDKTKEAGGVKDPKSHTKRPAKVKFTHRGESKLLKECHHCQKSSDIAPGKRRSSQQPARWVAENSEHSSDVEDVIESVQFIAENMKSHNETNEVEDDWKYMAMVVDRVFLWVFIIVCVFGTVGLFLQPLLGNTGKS

SMILES strings stand for the structures. Numbered stars: 1 amine (or outer) side, 2 acyl side, 3 side chain; on linkers, the order of the positions; unused ones are H or OH. Bridge positions count the residues as written; N and C are the ends. Peptide text beside a SMILES is read from it. X1 = NC(=O)[C@@H](CN[*:2])CS[*:1]

In the case of `CNC1(C)C2CCC(C2)C1(C)C` (configuration not stated) [MECAMYLAMINE], the Imax in test [1] is reported as 91%. Take `C=CC[n+]1cccc([C@@H]2CCCN2C)c1.[I-]`: the Imax in test [1] stood at 0%. Turning to `CN1CCC[C@H]1c1ccc[n+](C)c1.[I-]`, in test [1], the Imax worked out at 0%.

For the compound `Cc1ccc[n+](CCCCCCCCCCC[n+]2cccc(C)c2)c1.[Br-].[Br-]`, in test [1], the Imax was found to be 68%.

Consider `Cc1ccc[n+](CCCCCCC[n+]2cccc(C)c2)c1.[Br-].[Br-]`, for which the Imax in test [1] is 54%. Turning to `CCCCCCCCCCCCCCC[n+]1ccccc1.[I-]`, in test [1], the Imax came to 58%. The same measure, in the same setting: as for `[I-].[I-].c1cc[n+](CCCCCCCCCC[n+]2ccccc2)cc1`, the figure is 27%; as for `CCC[n+]1cccc([C@@H]2CCCN2C)c1.[I-]`, 58%. The same measure, in the same setting: as for `Cl.NC1CCCc2ncccc21` (configuration not stated), the figure is 69%; as for `[Br-].[Br-].c1ccc2c(c1)ccc[n+]2CCCCCCCCCCCC[n+]1cccc2ccccc21`, 52%. In test [2], `CC(C)C[C@@H]1NC(=O)[C@H](CC(N)=O)NC(=O)[C@H](CO)NC(=O)[C@H](Cc2cnc[nH]2)NC(=O)[C@H](CCC(=O)O)NC(=O)[C@H](CC(C)C)NC(=O)[C@H](Cc2cnc[nH]2)NC(=O)[C@@H]2CSSC[C@H](NC(=O)CN)C(=O)N[C@@H](CSSC[C@@H](C(N)=O)CNC1=O)C(=O)N[C@@H](CO)C(=O)N[C@@H](CC(N)=O)C(=O)N1CCC[C@H]1C(=O)N[C@@H](C(C)C)C(=O)N2` (H-GCCSNPVCHLEHSNL; disulfide 2-8; linker 3-C via X1) gave an Imax of 62%.

On to `C=CCCCCCC[n+]1cccc([C@@H]2CCCN2C)c1.[Br-]`, for which the Imax in test [1] is recorded as 87%. On the same count and under the same terms, as for `CCCC/C=C\CC[n+]1cccc([C@@H]2CCCN2C)c1.[Br-]`, the figure is 83%.

`CCCCCCCCCCCC[n+]1cccc([C@@H]2CCCN2C)c1.[I-]`: in test [1], the Imax is reported as 95%.

`CN(C)C1CCCc2ncccc21.Cl` (configuration not stated): the Imax in test [1] came out at 53%. As for `[I-].[I-].c1ccc2c[n+](CCCCCCCC[n+]3ccc4ccccc4c3)ccc2c1`, the Imax in test [1] is given as 74%. Same read-out and setting: as for `Cc1ccc[n+](CCCCCC[n+]2cccc(C)c2)c1.[I-].[I-]`, the figure is 7%; as for `[Br-].[Br-].c1ccc2c[n+](CCCCCCCCC[n+]3ccc4ccccc4c3)ccc2c1`, 0%.

Turning to `[Br-].[Br-].c1ccc2c[n+](CCCCCCCCCCC[n+]3ccc4ccccc4c3)ccc2c1`, the Imax in test [1] is 55%. On the same count and under the same terms, under `CCCCC#CCC[n+]1cccc([C@@H]2CCCN2C)c1.[Br-]` stands 47%; under `CNC1CCCc2ccncc21.Cl` (configuration not stated), 57%; under `CCCCCCCCCCCCCCCCCCCC[n+]1ccccc1.[Br-]`, 60%. Same read-out and setting: as for `C=CCCCCCCCC[n+]1cccc([C@@H]2CCCN2C)c1.[Br-]`, the figure is 72%.

For the compound `CCCCCCC#CCC[n+]1cccc([C@@H]2CCCN2C)c1.[Br-]`, the Imax in test [1] amounted to 29%. For `C[n+]1ccccc1.[I-]`, the Imax in test [1] is recorded as 0%. On the same count and under the same terms, as for `CCCCCCC[n+]1cccc([C@@H]2CCCN2C)c1.[I-]`, the figure is 75%; as for `[Br-].[Br-].c1cc[n+](CCCCCCCCCCCC[n+]2ccccc2)cc1`, 91%. Same read-out and setting: under `CCCCCC[n+]1cccc([C@@H]2CCCN2C)c1.[I-]` stands 80%; under `[I-].[I-].c1ccc2c(c1)ccc[n+]2CCCCCC[n+]1cccc2ccccc21`, 55%; under `[I-].[I-].c1cc[n+](CCCCCCCC[n+]2ccccc2)cc1`, 0%. The same measure, in the same setting: under `[Br-].[Br-].c1cc[n+](CCCCCCCCC[n+]2ccccc2)cc1` stands 28%. Turning to `CCCCCCC[n+]1ccccc1.[I-]`, the Imax in test [1] is recorded as 0%.

As to `CNC1CCCc2ncccc21.Cl` (configuration not stated), in test [1], the Imax was 87%. Still for that read-out and setting: as for `[Br-].[Br-].c1ccc2c(c1)ccc[n+]2CCCCCCCCC[n+]1cccc2ccccc21`, the figure is 58%. The same measure, in the same setting: as for `CCCCC[n+]1ccccc1.[I-]`, the figure is 44%; as for `CCCCCCCC[n+]1ccccc1.[I-]`, 0%; as for `[I-].[I-].c1ccc2c(c1)ccc[n+]2CCCCCCCCCC[n+]1cccc2ccccc21`, 76%. Consider `CN(C)C1CCCc2ccncc21.Cl` (configuration not stated), for which the Imax in test [1] was 68%. Regarding `CN1CCC[C@H]1c1ccc[n+](Cc2ccccc2)c1.[Br-]`, the Imax in test [1] is reported as 0%. Same read-out and setting: as for `[Br-].[Br-].c1ccc2c[n+](CCCCCCCCCCCC[n+]3ccc4ccccc4c3)ccc2c1`, the figure is 53%.

Regarding `CCCCCCCCCC[n+]1cccc(C)c1.[I-]`, the Imax in test [1] came to 73%. With `CCCCCCCCC[n+]1cccc2c1CC[C@@H]1CCN(C)[C@H]21.[I-]`, the Imax in test [1] worked out at 86%. Take `CCCCCCCCC[n+]1cccc([C@@H]2CCCN2C)c1.[I-]`: in test [1], the Imax worked out at 100%.

As for `CN1CCC[C@@H]1c1ccc[n+](CCCCCCCCCCCC[n+]2cccc([C@@H]3CCCN3C)c2)c1.[Br-].[Br-]`, the Imax in test [1] is on record as 38%. Consider `[I-].[I-].c1ccc2c[n+](CCCCCC[n+]3ccc4ccccc4c3)ccc2c1`, for which the Imax in test [1] is 47%. Same read-out and setting: under `[I-].[I-].c1cc[n+](CCCCC[n+]2ccccc2)cc1` stands 0%; under `[I-].[I-].c1ccc2c(c1)ccc[n+]2CCCCCCCC[n+]1cccc2ccccc21`, 71%. For `[I-].[I-].c1ccc2c[n+](CCCCCCCCCC[n+]3ccc4ccccc4c3)ccc2c1`, the Imax in test [1] was found to be 65%.

Consider `Cc1ccc[n+](CCCCCCCCCCCC[n+]2cccc(C)c2)c1.[Br-].[Br-]`, for which the Imax in test [1] is recorded as 78%. In the case of `Cl.NC1CCCc2ccncc21` (configuration not stated), in test [1], the Imax is 56%. For `CCCCCCCCC[n+]1ccc2c(c1)[C@H]1[C@@H](CC2)CCN1C.[I-]`, in test [1], the Imax is 56%. Same read-out and setting: as for `CCCCCCCC[n+]1cccc([C@@H]2CCCN2C)c1.[I-]`, the figure is 88%; as for `CCCCCCCCCCC[n+]1ccc2c(c1)[C@H]1[C@@H](CC2)CCN1C.[I-]`, 72%.

Turning to `CCCC[n+]1ccccc1.[I-]`, the Imax in test [1] is reported as 2%. Take `CCCCCCCCCCC[n+]1cccc2c1CC[C@@H]1CCN(C)[C@H]21.[I-]`: the Imax in test [1] was found to be 79%. Take `Cc1ccc[n+](CCCCCCCCCC[n+]2cccc(C)c2)c1.[I-].[I-]`: in test [1], the Imax is recorded as 63%.

Turning to `CCCC/C=C/CC[n+]1cccc([C@@H]2CCCN2C)c1.[Br-]`, the Imax in test [1] is reported as 79%.

Consider `Cc1ccc[n+](CCCCCCCCC[n+]2cccc(C)c2)c1.[Br-].[Br-]`, for which the Imax in test [1] is 63%. Same read-out and setting: as for `CCCCCC[n+]1ccccc1.[I-]`, the figure is 21%. As to `CCCCCCCCCC[n+]1ccc2c(c1)[C@H]1[C@@H](CC2)CCN1C.[I-]`, the Imax in test [1] turned out to be 67%.

For `C=CCCCCCCCCC[n+]1cccc([C@@H]2CCCN2C)c1.[Br-]`, in test [1], the Imax turned out to be 87%.

Regarding `CCCCCCCC[n+]1cccc2c1CC[C@@H]1CCN(C)[C@H]21.[I-]`, the Imax in test [1] is reported as 88%. The same measure, in the same setting: as for `CCCCC/C=C/CCC[n+]1cccc([C@@H]2CCCN2C)c1.[Br-]`, the figure is 85%; as for `Cc1ccc[n+](CCCCCCCC[n+]2cccc(C)c2)c1.[I-].[I-]`, 53%.

For the compound `CCCC[n+]1cccc([C@@H]2CCCN2C)c1.[I-]`, the Imax in test [1] is 80%.

Consider `CCCCCCCC[n+]1ccc2c(c1)[C@H]1[C@@H](CC2)CCN1C.[I-]`, for which the Imax in test [1] came to 60%. Turning to `CCCCCCCCCCCC[n+]1cccc2c1CC[C@@H]1CCN(C)[C@H]21.[I-]`, the Imax in test [1] came out at 25%. For the compound `CCCCCCCCCCCC[n+]1cccc(C)c1.[I-]`, in test [1], the Imax turned out to be 63%.

`CCCCCCCCCCCC[n+]1ccc2c(c1)[C@H]1[C@@H](CC2)CCN1C.[I-]`: the Imax in test [1] came to 62%.

Turning to `CCCCCCCCCC[n+]1cccc2c1CC[C@@H]1CCN(C)[C@H]21.[I-]`, the Imax in test [1] is 93%. The same measure, in the same setting: as for `CCC[n+]1ccccc1.[I-]`, the figure is 22%; as for `CC[n+]1ccccc1.[I-]`, 0%.
